Measurements published in patent US12544375B2, “Small molecule therapeutic for parkinson's disease paired with a biomarker of therapeutic activity” (The Board of Trustees of the Leland Stanford Junior …, priority 2019, dated 2026).

Test system: PD fibroblasts
Assay: Mitophagy at 14 hrs after CCCP in PD fibroblasts (Western blotting and immunocytochemistry)
Format: cell-based, human
Details: 14 hrs after CCCP treatment
Method: FIG. 8. Related to FIG. 2-4. Miro1 Reducer in Human Cell and Fly Models. (A) Fibroblasts from Healthy-1 and PD-2 were treated, lysed, and blotted as indicated. Band intensities are normalized to those of GAPDH from the same blots and compared to “Healthy-1, no treatment”. n=4 independent experiments. (B) Fibroblasts from PD-2 were treated and immunostained as indicated. The intensity was quantified for each cell across 264-320 cells from 3 independent experiments, compared to “no treatment”. (C) Fibroblasts were treated, immunoprecipitated (IPed) with anti-Miro1, and blotted as indicated. Similar results were observed twice. (D) Similar as in (C), fibroblasts were treated as indicated, and IPed with anti-Miro1. The GTPase activity of the IPed Miro1 protein was measured as described in Method. […] The MitoSox intensity was quantified for each cell across 106-161 cells from 3 coverslips. […] The TMRM intensity was measured for each cell across 48-60 cells from 3 independent experiments, and expressed as a fraction of the mean of “Healthy-1, no treatment”. […] The movement (the intensity of non-yellow) was quantified for each cell as described in (Tsai et al., 2014) across 22-31 cells from 3 transfections. […] (1) Left: The percentage of TH-positive iPSC-derived neurons out of total cells (Dapi-positive) is calculated after immunocytochemistry under 20× as described in FIG. 3. […]

O=C(Nc1ccc(Nc2cc(-n3ccnc3)ncn2)cc1)Nc1cccc(F)c1 [Miro1 Reducer]
delayed mitophagy phenotype: rescued the delayed mitophagy phenotype
